Test results published in US20210115040A1, “OGA INHIBITOR COMPOUNDS” (Janssen Pharmaceutica NV, priority 2018, published 2021).

target: T1, OGA (Homo sapiens, UniProt O60502); experiment: OGA cellular assay (ICC detection of O-GlcNAcylated proteins in HEK293 cells inducible for P301L mutant human Tau); assay type: cell-based; conditions: HEK293, HEK293 cells inducible for P301L mutant human Tau, maximum = Thiamet G 200 uM
T1 construct: HEK293 cells inducible for P301L mutant human Tau (isoform 2N4R) were established at Janssen; endogenous in cells; host or cells: HEK293 cells inducible for P301L mutant human Tau (2N4R)
T1 sequence (O60502 1-916): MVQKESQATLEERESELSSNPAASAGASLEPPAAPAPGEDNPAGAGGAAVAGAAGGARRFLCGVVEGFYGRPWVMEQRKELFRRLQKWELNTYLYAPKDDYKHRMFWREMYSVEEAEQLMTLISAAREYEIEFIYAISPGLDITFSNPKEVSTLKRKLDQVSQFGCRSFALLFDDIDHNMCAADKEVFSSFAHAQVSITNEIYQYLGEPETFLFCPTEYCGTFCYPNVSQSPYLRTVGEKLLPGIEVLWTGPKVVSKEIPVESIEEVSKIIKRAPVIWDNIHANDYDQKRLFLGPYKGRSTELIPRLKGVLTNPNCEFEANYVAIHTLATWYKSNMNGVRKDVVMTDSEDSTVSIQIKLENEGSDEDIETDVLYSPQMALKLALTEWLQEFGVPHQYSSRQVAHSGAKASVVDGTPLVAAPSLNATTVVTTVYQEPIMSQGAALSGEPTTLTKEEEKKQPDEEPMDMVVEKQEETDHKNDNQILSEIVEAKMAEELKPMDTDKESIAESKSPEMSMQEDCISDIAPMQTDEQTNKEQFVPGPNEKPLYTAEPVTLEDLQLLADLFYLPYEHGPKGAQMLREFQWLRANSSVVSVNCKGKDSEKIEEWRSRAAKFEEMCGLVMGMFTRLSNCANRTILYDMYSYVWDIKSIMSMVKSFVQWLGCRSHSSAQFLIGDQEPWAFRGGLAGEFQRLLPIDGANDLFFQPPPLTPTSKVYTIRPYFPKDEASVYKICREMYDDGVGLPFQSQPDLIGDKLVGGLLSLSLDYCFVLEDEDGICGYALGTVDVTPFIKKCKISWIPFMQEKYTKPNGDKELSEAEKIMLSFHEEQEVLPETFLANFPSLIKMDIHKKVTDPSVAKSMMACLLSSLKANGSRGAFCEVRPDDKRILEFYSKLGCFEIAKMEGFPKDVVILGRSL
Method: HEK293 cells inducible for P301L mutant human Tau (isoform 2N4R) were established at Janssen. Thiamet-G was used for both plate validation (high control) and as reference compound (reference EC50 assay validation). OGA inhibition is evaluated through the immunocytochemical (ICC) detection of O-GlcNAcylated proteins by the use of a monoclonal antibody (CTD110.6; Cell Signaling, #9875) detecting 0-GlcNAcylated residues as previously described (Dorfmueller et al. 2010 Chemistry & biology, 17:1250). Inhibition of OGA will result in an increase of O-GlcNAcylated protein levels resulting in an increased signal in the experiment. Cell nuclei are stained with Hoechst to give a cell culture quality control and a rough estimate of immediate compounds toxicity, if any. ICC pictures are imaged with a Perkin Elmer Opera Phenix plate microscope and quantified with the provided software Perkin Elmer Harmony 4.1.
Cells were propagated in DMEM high Glucose (Sigma, #D5796) following standard procedures. 2 days before the cell assay cells are split, counted and seeded in Poly-D-Lysine (PDL) coated 96-wells (Greiner, #655946) plate at a cell density of 12,000 cells per cm^2 (4,000 cells per well) in 100 μl of Assay Medium (Low Glucose medium is used to reduce basal levels of GlcNAcylation) (Park et al. 2014 The Journal of biological chemistry 289:13519). At the day of compound test medium from assay plates was removed and replenished with 90 μl of fresh Assay Medium. 10 μl of compounds at a 10fold final concentration were added to the wells. Plates were centrifuged shortly before incubation in the cell incubator for 6 hours. DMSO concentration was set to 0.2%. Medium is discarded by applying vacuum. For staining of cells medium was removed and cells washed once with 100 μl D-PBS (Sigma, #D8537). From next step onwards unless other stated assay volume was always 50 μl and incubation was performed without agitation and at room temperature. Cells were fixed in 50 μl of a 4% paraformaldehyde (PFA, Alpha aesar, #043368) PBS solution for 15 minutes at room temperature. […] Before analysis samples were washed 2 times manually for 5 minutes in ICC base buffer.
Imaging is performed using Perkin Elmer Phenix Opera using a water 20× objective and recording 9 fields per well. Intensity readout at 488 nm is used as a measure of O-GlcNAcylation level of total proteins in wells. To assess potential toxicity of compounds nuclei were counted using the Hoechst staining. IC50-values are calculated using parametric non-linear regression model fitting. As a maximum inhibition Thiamet G at a 200 uM concentration is present on each plate. In addition, a concentration response of Thiamet G is calculated on each plate.

Row | Emax | Structure (SMILES)
1 | 79% | Cc1cc([C@H]2CCCN([C@@H](C)c3nc4nc(C)sc4cc3F)C2)cc(C)n1 (single isomer, unassigned) [Compound 87]

same assay, conditions: HEK293 cells inducible for P301L mutant human Tau, 6 hours incubation

Row | Cellular hOGA; pEC50 | Structure (SMILES)
2 | <6 | Cc1cc(O[C@@H]2CCN(C(C)c3ccc4sc(C)nc4n3)C2)cc(C)n1 (single isomer, unassigned) [Compound 74]

same assay, conditions: HEK293 cells inducible for P301L mutant human Tau, 6 hours incubation; read-out: Cellular hOGA; pEC50 (converted)

Row | Structure (SMILES) | EC50
3 | Cc1cc(O[C@@H]2CCN(C(C)c3ccc4sc(C)nc4n3)C2)cc(C)n1 (single isomer, unassigned) [Compound 73] | > 1000 nM
4 | Cc1cc(C2CCCN(C(C)c3ccc4sc(C)nc4n3)C2)c(F)c(C)n1 (single isomer, unassigned) [Compound 77] | > 1000 nM

Other lines, results leading:

Row | EC50 | Structure (SMILES)
5 | 79.4 nM | Cc1cc(C2CCCN(C(C)c3ccc4sc(C)nc4n3)C2)c(F)c(C)n1 (single isomer, unassigned) [Compound 78]
6 | 3.16 nM | Cc1cc([C@H]2CCCN([C@@H](C)c3nc4nc(C)sc4cc3F)C2)cc(C)n1 (single isomer, unassigned) [Compound 87]

same assay, conditions: HEK293 cells inducible for P301L mutant human Tau, maximum = Thiamet G 200 uM

Row | Cellular Emax (%) | Structure (SMILES)
7 | −9% | Cc1cc(O[C@@H]2CCN(C(C)c3ccc4sc(C)nc4n3)C2)cc(C)n1 (single isomer, unassigned) [Compound 73]
8 | −4% | Cc1cc(O[C@@H]2CCN(C(C)c3ccc4sc(C)nc4n3)C2)cc(C)n1 (single isomer, unassigned) [Compound 74]
9 | −10% | Cc1cc(C2CCCN(C(C)c3ccc4sc(C)nc4n3)C2)c(F)c(C)n1 (single isomer, unassigned) [Compound 77]
10 | 80% | Cc1cc(C2CCCN(C(C)c3ccc4sc(C)nc4n3)C2)c(F)c(C)n1 (single isomer, unassigned) [Compound 78]

target: T2, recombinant human Meningioma Expressed Antigen 5 (MGEA5), also referred to as O-GlcNAcase (OGA) (Homo sapiens, UniProt O60502); experiment: OGA biochemical assay (inhibition of FM-GlcNAc hydrolysis, fluorescence); conditions: FM-GlcNAc substrate, 6 h at room temperature, read-out: Enzymatic hOGA, pIC50 (converted)
T2 construct: Full length OGA enzyme was purchased at OriGene (cat #TP322411); purchased OriGene TP322411
T2 sequence (O60502 1-916): T1 sequence (O60502 1-916)
Text: The assay is based on the inhibition of the hydrolysis of fluorescein mono-β-D-N-Acetyl-Glucosamine (FM-GlcNAc) (Mariappa et al. 2015, Biochem J 470:255) by the recombinant human Meningioma Expressed Antigen 5 (MGEA5), also referred to as O-GlcNAcase (OGA). The hydrolysis FM-GlcNAc (Marker Gene technologies, cat #M1485) results in the formation of β-D-N-glucosamineacetate and fluorescein. The fluorescence of the latter can be measured at excitation wavelength 485 nm and emission wavelength 538 nm. An increase in enzyme activity results in an increase in fluorescence signal. Full length OGA enzyme was purchased at OriGene (cat #TP322411). The enzyme was stored in 25 mM Tris.HCl, pH 7.3, 100 mM glycine, 10% glycerol at −20° C. Thiamet G and GlcNAcStatin were tested as reference compounds (Yuzwa et al. 2008 Nature Chemical Biology 4:483; Yuzwa et al. 2012 Nature Chemical Biology 8:393). The assay was performed in 200 mM Citrate/phosphate buffer supplemented with 0.005% Tween-20. 35.6 g Na2HPO4 2H2O (Sigma, #C0759) were dissolved in 1 L water to obtain a 200 mM solution. 19.2 g citric acid (Merck, #1.06580) was dissolved in 1 L water to obtain a 100 mM solution. pH of the sodiumphosphate solution was adjusted with the citric acid solution to 7.2. The buffer to stop the reaction consists of a 500 mM Carbonate buffer, pH 11.0. 734 mg FM-GlcNAc were dissolved in 5.48 mL DMSO to obtain a 250 mM solution and was stored at −20° C. OGA was used at a 2 nM concentration and FM-GlcNAc at a 100 uM final concentration. Dilutions were prepared in assay buffer.
50 nl of a compound dissolved in DMSO was dispensed on Black Proxiplate™ 384 Plus Assay plates (Perkin Elmer, #6008269) and 3 μl fl-OGA enzyme mix added subsequently. Plates were pre-incubated for 60 min at room temperature and then 2 μl FM-GlcNAc substrate mix added. […] Plates were briefly centrifuged for 1 min at 1000 rpm and incubate at room temperature for 6 h. To stop the reaction 5 μl STOP buffer were added and plates centrifuge again 1 min at 1000 rpm. Fluorescence was quantified in the Thermo Scientific Fluoroskan Ascent or the PerkinElmer EnVision with excitation wavelength 485 nm and emission wavelength 538 nm.
For analysis a best-fit curve is fitted by a minimum sum of squares method. From this an IC50 value and Hill coefficient was obtained. High control (no inhibitor) and low control (saturating concentrations of standard inhibitor) were used to define the minimum and maximum values.

Row | Structure (SMILES) | IC50
11 | Cc1cc(O[C@@H]2CCN(C(C)c3ccc4sc(C)nc4n3)C2)cc(C)n1 (single isomer, unassigned) [Compound 73] | > 10000 nM
12 | Cc1cc(O[C@@H]2CCN(C(C)c3ccc4sc(C)nc4n3)C2)cc(C)n1 (single isomer, unassigned) [Compound 74] | 158 nM
13 | Cc1cc(C2CCCN(C(C)c3ccc4sc(C)nc4n3)C2)c(F)c(C)n1 (single isomer, unassigned) [Compound 77] | 2510 nM

Now from value to compound:

Row | IC50 | Structure (SMILES)
14 | 10 nM | Cc1cc(C2CCCN(C(C)c3ccc4sc(C)nc4n3)C2)c(F)c(C)n1 (single isomer, unassigned) [Compound 78]
15 | 2.51 nM | Cc1cc([C@H]2CCCN([C@@H](C)c3nc4nc(C)sc4cc3F)C2)cc(C)n1 (single isomer, unassigned) [Compound 87]

same assay, conditions: FM-GlcNAc substrate, maximal effect

Row | Enzymatic Emax (%) | Structure (SMILES)
16 | 8% | Cc1cc(O[C@@H]2CCN(C(C)c3ccc4sc(C)nc4n3)C2)cc(C)n1 (single isomer, unassigned) [Compound 73]
17 | 97% | Cc1cc(O[C@@H]2CCN(C(C)c3ccc4sc(C)nc4n3)C2)cc(C)n1 (single isomer, unassigned) [Compound 74]
18 | 93% | Cc1cc(C2CCCN(C(C)c3ccc4sc(C)nc4n3)C2)c(F)c(C)n1 (single isomer, unassigned) [Compound 78]

same assay, conditions: FM-GlcNAc substrate, maximal effect, read-out: Enzymatic Emax (%)

Row | Emax | Structure (SMILES)
19 | 75% | Cc1cc(C2CCCN(C(C)c3ccc4sc(C)nc4n3)C2)c(F)c(C)n1 (single isomer, unassigned) [Compound 77]
20 | 99% | Cc1cc([C@H]2CCCN([C@@H](C)c3nc4nc(C)sc4cc3F)C2)cc(C)n1 (single isomer, unassigned) [Compound 87]
